For 26 molecules, inhibition in vivo and ID50 results are on record in US4387238A, “Epoxysuccinamic acid compounds” (Taisho Pharmaceutical Co., Ltd., priority 1978, dated 1983).

Read-outs that look alike come from different tables or passages of the source.

The test system of assay [1] is adjuvant-induced polyarthritis. In words: Effect on the development of adjuvant-induced polyarthritis in rat (hind paw volume). Format: in vivo, Sprague Dawley rat. To be noted: 30 mg/kg of body weight, daily oral, 8 rats/group. On the procedure: The compounds of the present invention show excellent anti-inflammatory activity as measured by their ability to inhibit adjuvant induced polyarthritis as compared with the known epoxysuccinates. That is, they show potent and continuous effectiveness on oral administration of smaller components than the known epoxysuccinic acid compounds. Effect of the compounds of the present invention on the development of adjuvant-induced polyarthritis in rat was assayed as follows: Adjuvant arthritis is produced by a single intracutaneous injection of 0.1 ml of the adjuvant mixture containing heat-killed mycobacteria of the human Aoyama B strain suspended in liquid paraffin in 0.6% in the middle part of the distal tail of Sprague Dawley rat (female, 8 weeks old). The compounds suspended in 0.5% carboxymethylcellulose solution protect the animal against the development of lession of adjuvant arthritis in daily oral administration beginning on the day of adjuvant injection and continuing for 24 days thereafter. The activity is measured as the mean inhibition percent for the increase of the hind paw volume of the 8 rats/group on the days 17 and 23 on which the legs become inflamed and reach maximum volumes. The compound Nos. in Table 1 are as defined in Examples as described hereinafter.

In assay [2] the target is T1, papain (Carica papaya, UniProt P00784).
T1 construct: purchased Sigma Chem. Co
T1 sequence (P00784 134-345): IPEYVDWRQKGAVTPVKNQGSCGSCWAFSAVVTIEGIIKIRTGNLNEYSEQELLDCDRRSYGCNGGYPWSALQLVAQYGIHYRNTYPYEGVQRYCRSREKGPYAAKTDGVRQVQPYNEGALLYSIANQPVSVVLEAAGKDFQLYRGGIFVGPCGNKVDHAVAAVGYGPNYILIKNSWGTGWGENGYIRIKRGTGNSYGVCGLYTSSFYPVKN
Briefly: Papain inhibitory activity (milk casein proteolysis). It is filed as biochemical. Particulars: amount of inhibitor for 50% inhibition; pH 6.8, 40° C., casein substrate. Also on record: unit not given beside the values. On the procedure:
Papain inhibitory activity of the compounds of the present invention was assayed as follows: To 0.5 ml of a solution of papain (80 μg/ml, Sigma Chem. Co., 2x, cry.), were added 0.25 ml of 40 mM cysteine dissolved in 20 mM disodium ethylenediamine tetraacetic acid solution adjusted pH to 6.8 with sodium hydroxide and 0.25 ml of 33 mM phosphate buffer (pH 6.8) with or without inhibitor. After incubation for 15 minutes at 40° C., the resulting mixture was added to 5 ml of 1% milk casein solution in the same buffer as described above, and further incubated for 10 minutes at 40° C. Then the mixture was mixed with 5 ml of 0.44 M trichloroacetic acid solution and followed by filtration with a sheet of Toyo filter paper No. 4.
The extinction of the filtrate was read at 280 nm. The percent inhibition was calculated from the formula, 100×(B-A)/B; wherein B stands for the absorbance without inhibitor and A for the absorbance with inhibitor. The compound Nos. in Table 2 are as defined in Examples as described hereinafter.

The mark [3] stands for this setting: 408 h, day 17, mean inhibition for increase of hind paw volume, read-out: Inhibition(%) 17 days.
[4] abbreviates: 552 h, day 23, mean inhibition for increase of hind paw volume, read-out: Inhibition(%) 23 days.

For the molecule `CCOC(=O)[C@@H]1O[C@H]1C(=O)Nc1ccccc1` (relative stereo) [Compound No. 1, ethyl N-phenyl-2,3-epoxysuccinamate], the inhibition in vivo at 30 mg/kg in assay [1] (setting [3]) amounted to 70%; in assay [1] (setting [4]), 62%. In addition, the ID50 in assay [2] was 24.04 γ.

`CCOC(=O)[C@@H]1O[C@H]1C(=O)Nc1ccc([N+](=O)[O-])cc1` (relative stereo) [Compound No. 5, ethyl N-4'-nitrophenyl-2,3-epoxysuccinamate]: the inhibition in vivo at 30 mg/kg worked out at 65% in assay [1] (setting [3]) and 48% in assay [1] (setting [4]). Also, the ID50 in assay [2] is listed as 22.32 γ.

Consider `O=C(NC1CCCCC1)[C@@H]1O[C@H]1C(=O)OC1CCCC1` (relative stereo) [Compound No. 25, cyclopentyl N-cyclohexyl-2,3-epoxysuccinamate], for which the results for the inhibition in vivo at 30 mg/kg in assay [1] (setting [3]) and in assay [1] (setting [4]) were 76% and 58%, respectively. Moreover, in assay [2], the ID50 is recorded as 3.68 γ.

Consider `CCOC(=O)[C@@H]1O[C@H]1C(=O)N(C)C1CCCCC1` (relative stereo) [Compound No. 31, ethyl N-methyl-N-cyclohexyl-2,3-epoxysuccinamate], for which the results for the inhibition in vivo at 30 mg/kg in assay [1] (setting [3]) and in assay [1] (setting [4]) were 45% and 38%, respectively. The ID50 in assay [2] was 53.19 γ.

As to `CC(C)COC(=O)[C@H]1O[C@@H]1C(=O)Nc1ccccc1` (relative stereo) [Compound No. 40, Isobutyl N-phenyl-2,3-epoxysuccinamate], the inhibition in vivo at 30 mg/kg was determined as 40% in assay [1] (setting [3]) and 35% in assay [1] (setting [4]). Further, in assay [2], the ID50 is listed as 13.20 γ.

As to `O=C(Nc1ccccc1)[C@H]1O[C@@H]1C(=O)OC1CCCCC1` (relative stereo) [Compound No. 45, Cyclohexyl N-phenyl-2,3-epoxysuccinamate], the inhibition in vivo at 30 mg/kg amounted to 65% in assay [1] (setting [3]) and 49% in assay [1] (setting [4]). The ID50 in assay [2] is listed as 5.89 γ.

For `O=C(NCc1ccccc1)[C@H]1O[C@@H]1C(=O)Oc1ccccc1` (relative stereo) [Compound No. 48, Phenyl N-benzyl-2,3-epoxysuccinamate], the inhibition in vivo at 30 mg/kg in assay [1] (setting [3]) is 45%; in assay [1] (setting [4]) it was 40%. In addition, the ID50 in assay [2] is on record as 3.83 γ.

As for `CCNC(=O)[C@H]1O[C@@H]1C(=O)OC1CCCCC1` (relative stereo) [Compound No. 66, Cyclohexyl N-ethyl-2,3-epoxysuccinamate], the inhibition in vivo at 30 mg/kg in assay [1] (setting [3]) was 75%; in assay [1] (setting [4]), 62%. Moreover, the ID50 in assay [2] is reported as 11.05 γ.

Turning to `CCOC(=O)[C@@H]1O[C@H]1C(=O)N1CCC(C)CC1` (relative stereo) [Compound No. 76, ethyl N-3'-methylpentamethylene-2,3-epoxysuccinamate], the figures for the inhibition in vivo at 30 mg/kg in assay [1] (setting [3]) and in assay [1] (setting [4]) were 48% and 42%, respectively. In addition, the ID50 in assay [2] is reported as 79.53 γ.

Turning to `O=C(O)[C@@H]1O[C@H]1C(=O)NCC1CCCCC1` (relative stereo) [Compound No. 98, potassium N-cyclohexanemethyl-2,3-epoxysuccinamate], the inhibition in vivo at 30 mg/kg in assay [1] (setting [3]) was determined as 55%; in assay [1] (setting [4]), 41%. In assay [2], the ID50 is 0.205 γ.

On to `CCNC(=O)[C@H]1O[C@@H]1C(=O)O` (relative stereo) [Compound No. 102, Potassium N-ethyl-2,3-epoxysuccinamate], for which, in assay [2], the ID50 is on record as 1.34 γ.

As for `O=C(O)[C@@H]1O[C@H]1C(=O)N1CCCC1` (relative stereo) [Compound No. 103, Sodium N-tetramethylene-2,3-epoxysuccinamate], the ID50 in assay [2] is reported as 13.42 γ.

On to `O=C(O)[C@@H]1O[C@H]1C(=O)Nc1ccccc1` (relative stereo) [Compound No. 104, Sodium N-phenyl-2,3-epoxysuccinamate], for which the ID50 in assay [2] was 0.315 γ.

Regarding `O=C(O)[C@@H]1O[C@H]1C(=O)Nc1ccccc1` (relative stereo) [Compound No. 105, N-phenyl-2,3-epoxysuccinamic acid], the ID50 in assay [2] is listed as 0.278 γ.

Regarding `O=C(O)[C@@H]1O[C@H]1C(=O)NC1CCCCC1` (relative stereo) [Compound No. 107, N-Cyclohexyl-2,3-epoxysuccinamic acid], the ID50 in assay [2] was 0.214 γ.

Turning to `O=C(O)[C@@H]1O[C@H]1C(=O)NCC1CCCC1` (relative stereo) [Compound No. 108, N-Cyclopentanemethyl-2,3-epoxysuccinamic acid], in assay [2], the ID50 is 0.234 γ.

With `C=CCOC(=O)[C@H]1O[C@@H]1C(=O)NCC1CCCC1` (relative stereo) [compound 38, Allyl N-cyclopentanemethyl-2,3-epoxysuccinamate], the ID50 in assay [2] is on record as 4.26 γ.

Regarding `COC(=O)[C@@H]1O[C@H]1C(=O)NC(C)C` (stereo in doubt) [Compound No. 34, Methyl N-isopropyl-2,3-epoxysuccinamate], the ID50 in assay [2] is recorded as 32.35 γ.

For `COC(=O)[C@H]1O[C@@H]1C(=O)NC(C)C` (stereo in doubt) [Compound No. 60, Methyl N-isopropyl-2,3-epoxysuccinamate], the ID50 in assay [2] is listed as 32.35 γ.

For the molecule `CCOC(=O)[C@@H]1O[C@H]1C(=O)N1CCOC(C)C1` (stereo partly shown) [Compound No. 33, ethyl N-1'-methyloxydiethylene-2,3-epoxysuccinamate], the ID50 in assay [2] is given as 95.10 γ.

On to `CCOC(=O)C1OC1C(=O)N1CCSCC1C` (stereo not shown) [Compound No. 80, Ethyl N-1'-methylthiadiethylene-2,3-epoxysuccinamate], for which, in assay [2], the ID50 is 120.53 γ.

On to `CCOC(=O)C1OC1C(=O)N1CCCC1C(=O)OCc1ccccc1` (stereo not shown) [Compound No. 86, ethyl N-1'-carbobenzoxytetramethylene-2,3-epoxysuccinamate], for which the ID50 in assay [2] is recorded as 105.50 γ.

Consider `CCOC(=O)C1OC1C(=O)N1CCCC1C(=O)OC` (stereo not shown) [Compound No. 87, ethyl N-1'-carbomethoxytetramethylene-2,3-epoxysuccinamate], for which the ID50 in assay [2] is recorded as 98.10 γ.

In the case of `CCCCOC(=O)C1CCCN1C(=O)C1OC1C(=O)OCC` (stereo not shown) [Compound No. 88, ethyl N-1'-carbobutoxytetramethylene-2,3-epoxysuccinamate], the ID50 in assay [2] is listed as 118.41 γ.

Regarding `O=C(O)C1OC1C(=O)N1CCCC1C(=O)O` (stereo not shown) [Compound No. 99, potassium N-1'-carbopotassium oxytetramethylene-2,3-epoxysuccinamate], the ID50 in assay [2] was 0.104 γ.

In the case of `O=C(O)C1OC1C(=O)N1CCCC1C(=O)O` (stereo not shown) [Compound No. 106, N-1'-carboxytetramethylene-2,3-epoxysuccinamic acid], the ID50 in assay [2] is 0.301 γ.
